In patent EP0499337A1, “Use of tetra:hydro-thieno-pyrido-indole derivatives for the treatment of skin disorders” (YAMANOUCHI EUROPE B.V., priority 1991, dated 1992):
Like-named read-outs stand apart in the source and are kept apart here.

How the values were obtained:
HaCaT cells [1] = test: Keratinocyte morphology, phase contrast microscopy; type: cell-based, human; conditions: 10 µM, monitored during 72 hours
Experimental: HaCaT cells were cultured under standard conditions. 24 h after plating (2.5 x 10⁶ cells) the medium was replaced by medium containing the test compounds. During 72 hours cell morphology was frequently monitored using a phase contrast photomicroscope (Olympus IMT-2, Tokyo, Japan).

PKC = conditions: in-vitro tests; Hegemann et al. (1989); cited from earlier work
NHEK = test: Keratinocyte proliferation, neutral red assay (number of viable attached cells); type: cell-based; conditions: Homo sapiens, Ca²⁺ concentration low (0.06 mM), read-out: keratinocyte proliferation IC₅₀ values
Experimental: (§1) On day 0, 5,000 cells in 100 µl were plated per well in a 96-well cluster plate (Greiner), either in the medium as stated above, or in MCDB153 medium (Clonetics) under low calcium conditions. On day 1 100 µl medium containing increasing concentrations of test agents were added to each well. On day 4, 50 µl of 0.05% neutral red (Gurr) solution in 0.9% NaCl was added per well and the cells were reincubated for 3 h at 37°C. After washing with PBS, the cells were lyzed by addition of 100 µl of 50% ethanol in 0.05 M NaH₂PO₄ per well. After vigorous shaking, the optical extinction was measured at 550 nm. […] Meth., 9: 7). All determinations were performed in octuple. IC₅₀-values (the concentration inhibiting cell numbers by 50%) were determined (µM).

SVK₁₄ = test: as above; type: cell-based; conditions: Homo sapiens
Experimental: as §1

calmodulin = calmodulin (Homo sapiens, UniProt P0DP23); conditions: Schmidt et al. (1990); cited from earlier work
rat brain synaptosomes = test: Noradrenaline release from permeated synaptosomes; type: cell-based; conditions: 100 µM to 1 µM; low (10 nM) and high (10 µM) Ca²⁺
Experimental: Highly purified synaptosomes were prepared according to Dunkley and Robinson (1987). The synaptosomes were diluted with 3 ml buffer A (123 mM NaCl, 5 mM KCl, 2 mM CaCl₂, […], 1.15 mM NaH₂PO₄, 5.6 mM glucose, 20 mM PIPES pH 6.8, gassed with O₂:CO₂, 95:5) and incubated for 15 min at 37°C. Then 2.5 µCi noradrenalin (NA) was added, incubation was continued for 15 min and the synaptosomes were centrifuged for 20 min at 600 x g. The resulting pellet was washed twice in buffer A without CaCl₂ and resuspended (1 mg protein/ml).
For measurement of NA release, prelabeled synaptosomes were incubated at 37°C in buffer A containing Na₂ATP and EGTA-buffered Ca²⁺ in concentrations as indicated (final volume 120 µl). The release reaction was started by adding synaptosomes (20 µg protein) to the reaction mixture and terminated after 5 min by 30 sec centrifugation at 10,000 x g. The supernatant (90 µl) was collected and counted in a Packard Model 2,000 CA liquid scintillation counter with Picofluor as a scintillation cocktail. NA release was expressed as % of total [³H]-NA incorporated. Total NA incorporation was determined by measuring [³H]-incorporation in 20 µg prelabeled washed synaptosomes.

HaCaT cells [2] = test system: HaCaT cells
Experimental: HaCaT cells were grown as described.
Cytotoxicity was assessed by measurements of the content of intracellular lactate dehydrogenase (LDH) activity released into the culture medium during 48 h after onset of drug exposure. Possible drug induced detachment of the HaCaT cells from the plate was assessed by collection of the medium from the wells and centrifugation (80 x g, 10 min.) The resulting pellet was suspended in 10 µl medium and cells were counted in a haemocytometer.

[3] = test system: human polymorphonuclear leukocytes (PMNL); test: ROS generation from PMNL, lucigenin-amplified chemiluminescence; type: cell-based; conditions: for IC50: Homo sapiens, PMNL
Experimental: Human PMNL were isolated from fresh blood (anticoagulated with sodium citrate) by erythrocyte sedimentation with 1% dextran (Pharmacia, Uppsala, Sweden) centrifugation of the resulting supernatant, followed by hypoosmotic lysis to remove red blood cells. Washed cells were adjusted to 2 x 10⁶ cells/ml in PBS containing fetal calf serum (2%; v/v). Test compounds dissolved in DMSO were diluted with the assay buffer to a final DMSO concentration of 0.5% (v/v).
Then the test compounds (100 µl) were added with subsequent recording for another 16 min period. […] Results were expressed as percent of inhibition or stimulation of the controls (mean of two integrals) in a single experiment.

[4] = test system: PKC from the central nervous system; test: Phosphorylation of synaptosomal plasma membranes: B-50 phosphorylation; type: biochemical; conditions: for phosphorylation of B-50 (% of control): without addition of CaM
Experimental: Subcellular fractionation and phosphorylation assay were performed according to Kristjansson et al., (1982). […] After a preincubation at 30°C for 5 min, the phosphorylation reaction was started by adding the ATP. The reaction was stopped after 15 sec. All compounds to be tested were present at the start of the preincubation. […]

50 kDa protein = test: Phosphorylation of synaptosomal plasma membranes: CaM-dependent phosphorylation of the 50 kDa protein; type: biochemical; conditions: in the presence of exogenous CaM (3 units/assay); read-out: IC₅₀-value, CaM-dependent phosphorylation of the 50 kDa protein
Experimental: Subcellular fractionation and phosphorylation assay were performed according to Kristjansson et al., (1982). […] After a preincubation at 30°C for 5 min, the phosphorylation reaction was started by adding the ATP. The reaction was stopped after 15 sec. All compounds to be tested were present at the start of the preincubation. […] Phosphorylation of B-50 and the 50 kDa protein, which was only phosphorylated after addition of CaM, was measured in the presence of exogenous CaM (3 units/assay) and quantified.

For `CCN1CCc2[nH]c3cc(F)c4scc(C)c4c3c2C1` [Tiflucarbine, 1-methyl-9-ethyl-4-fluoro-7,8,9,10-tetra:hydro-thieno-[3,2-e]-pyrido-[4,3-b]-indole lactate], the effect on morphology (HaCaT cells [1]) is given as “no effect”, the PKC activity (PKC) is given as “significantly inhibit PKC activity” and the IC50 (NHEK) is given as 10 µM. The IC50 (SVK₁₄; SVK₁₄, Ca²⁺ concentration normal (1.6 mM), read-out: keratinocyte proliferation IC₅₀ values) was 12.5 µM, the IC50 (SVK₁₄; read-out: keratinocyte proliferation IC₅₀ values, SVK₁₄, Ca²⁺ concentration low (0.06 mM)) was 7.5 µM and the binding to calmodulin (calmodulin) was “bind to calmodulin”. The noradrenaline release (rat brain synaptosomes) was “did not display any significant effects”, the toxic concentration (HaCaT cells [2]) was “above 300 µM” and the IC50 ([3]; 16 min, compound added at peak, 16 min after opsonized zymosan, IC₅₀-values, read-out: Peak CL) was 14 µM. The IC50 ([3]; 30 min preincubation, unstimulated, IC₅₀-values, read-out: Spontaneous CL) was 7.2 µM, the IC50 ([3]; stimulation with opsonized zymosan after preincubation, IC₅₀-values, read-out: Induced CL) was 7.4 µM and the IC50 ([3]; unstimulated cells and cells stimulated with opsonized zymosan or PMA, read-out: IC₅₀ values, inhibition of ROS generation) was 7 µM. For the same compound, the “inhibition of peak chemiluminescence to 50%, fold higher concentrations” value ([3]; both stimuli (opsonized zymosan, PMA), relative to the IC₅₀ of 7 µM) was 2-3 fold, the “induction of the release of reactive oxygen species” value ([3]; human PMNL, unstimulated) was “does not induce the release” and the B-50 phosphorylation ([4]; in the presence of exogenous CaM (3 units/assay)) was “did not inhibit B-50 phosphorylation”. For the same compound, the “phosphorylation of B-50 (% of control)” value ([4]; concentration 1 µM) was 82 ± 14 % of control, the “phosphorylation of B-50 (% of control)” value ([4]; concentration 10 µM) was 110 ± 15 % of control and the “phosphorylation of B-50 (% of control)” value ([4]; concentration 100 µM) was 92 ± 9 % of control. The “phosphorylation of B-50 (% of control)” value ([4]; concentration l mM) was 95 ± 11 % of control and the IC50 (50 kDa protein) was less than 1000 nM.
